Test results published in ChEMBL document CHEMBL4177522, “Effects of new fluorinated analogues of GABA, pregabalin bioisosters, on the ambient level and exocytotic release of [3H]GABA from rat brain nerve terminals” (Bioorg Med Chem, 2017).

What was measured:
[1] = Effect on ambient level of L-[3H]glutamate in Wistar rat synaptosomes assessed as L-[3H]glutamate level at 100 uM preincubated for 20 mins (reference value: 24.68 +/- 1.49%); assay type: ADME, subcellular, Synaptosome
[2] = Effect on ambient level of [3H]GABA in Wistar rat synaptosomes assessed as [3H]GABA level at 100 uM preincubated for 20 mins in presence of GAT1 specific blocker NO-711 (reference value: 25.07 +/- 2.1%); assay type: ADME, subcellular, Synaptosome
Rattus norvegicus = species on record: Rattus norvegicus; test: Decrease in KCl-induced exocytotic release of [3H]GABA in Wistar rat synaptosomes at 100 uM preincubated for 20 mins followed by Kcl addition in Ca2+ containing media measured after 5 mins; assay type: functional, subcellular; parameters: scale not given: the % may be the effect or the level left
[3] = Induction of plasma membrane hyperpolarization in Wistar rat synaptosomes at 100 uM by rhodamine 6G based spectrofluorimeteric method; assay type: subcellular, Synaptosome
[4] = Induction of plasma membrane depolarization in Wistar rat synaptosomes at 100 uM by rhodamine 6G based spectrofluorimeteric method; assay type: subcellular, Synaptosome
[5] = Effect on ambient level of [3H]GABA in Wistar rat synaptosomes assessed as [3H]GABA level at 100 uM preincubated for 20 mins (reference value: 14.20 +/- 1.03%); assay type: ADME, subcellular, Synaptosome

SMILES | Activity [1] [%] | Activity [2] [%] | Activity (Rattus norvegicus) [%] | Activity [3] | Activity [4] | Activity [5] [%]
NC[C@@](O)(CC(=O)O)C(F)(F)F | 22.72 | 27.9 | 35 | Non-Toxic | Non-Toxic | 15.55
CC(C)C[C@H](CN)CC(=O)O [PREGABALIN] | 26.2 | 24.34 | 15 | Non-Toxic | Non-Toxic | 14.1
NC[C@@H](CC(=O)O)C(F)(F)F | 24.75 | 24.86 | 26 | Non-Toxic | Non-Toxic | 13.35
NCC(CC(=O)O)C(F)(F)C(F)F (racemic) | 25.29 | 26.6 | 33 | Non-Toxic | Non-Toxic | 14.63
